We go through 4 compounds from patent US4447437A, “Pharmaceutical composition and method for treatment of peptic ulcer” (priority 1981, dated 1984).

Data set [1] concerns histamine-induced ulcer in guinea-pigs. The experiment in a line: Effect on histamine-induced ulcer in guinea-pigs. Format: in vivo, male guinea-pigs. Particulars: for Inhibition rate: 2 h. Here is the method: Effect on histamine-induced ulcer in guinea-pigs
Groups of 10 male guinea-pigs weighing 280-300 g were used. […] Two hours later, the stomach was removed and the size of the ulcerous lesions were measured. Based on the size of the lesions, the inhibitory effect of the drug was estimated. The effects of sulpiride, cetraxate and aluminum sucrose sulphate were also determined for comparison.

For a further data set, the system named is Shay ulcer of rats. The experiment in a line: Effect on Shay ulcer of rats (pylorus ligation). Type of data set: in vivo, Wistar male rats. The conditions noted are these: for Inhibition rate: ulcer-index 19 h after pylorus ligation. Here is the method: Effect on Shay ulcer of rats
A group of 8 Wistar male rats weighing 130-180 g were used in a group. […] Nineteen hours after ligation, the severity of ulcerous lesions in the proventricular part of the stomach was observed and expressed in a numerical scale according to the method of Adami et al. (Arch. Int. Pharmacodyn. Ther., 143, 113 (1964)) as the ulcer-index. Inhibition of ulceration was calculated with ulcer-indexes of the treated group and those of a control group. The anti-ulcer effects of well-known therapeutic agents on the market, sulpiride and cetraxate, were examined for comparison.

The next data set concerns ICR mice. The experiment in a line: in vivo. The conditions noted are these: Table 4: ICR mice and Wistar rats, acute oral toxicity. As to the method:
(§1) LD50 was calculated by the Litchfield-Wilcoxon method using mortality at 7 days after drug administration.

The next data set in a line: in vivo. The conditions noted are these: mouse, in vivo, po, LD50, ICR mice, mortality at 7 days, Litchfield-Wilcoxon method. As to the method:
as §1

Data set [2] in a line: Acute oral toxicity in rats. The conditions noted are these: rat, in vivo, Wistar rats, male, mortality at 7 days, Litchfield-Wilcoxon method.
The conditions of data set [3]: known compound; cited from earlier work.
The next data set can be described thus: Solubility. Type of data set: physicochemical.
The test system of data set [4] is acetic acid-induced ulcer in rats. The experiment in a line: Effect on acetic acid-induced ulcer in rats. Format: in vivo, male Wistar rats. Particulars: for Inhibition rate: lesion size 12 days after acetic acid. Here is the method:
Effect on acetic acid-induced ulcer in rats
Groups of 14-16 male Wistar rats weighing 210-280 g were used. According to the method of Okabe et al. (Folia Pharmacologica Japonica, 74, 773 (1978)), 0.015 ml of 20% acetic acid solution was injected under the serous membrane at the border of the proventricular part and glandular part of the stomach. […] The stomach was removed 12 days after the injection of acetic acid and the size of the ulcerous lesions was measured. Based on the size of the lesions, the inhibitory effect of the drug was estimated. The effects of sulpiride were also determined for comparison.

Data set [5] in a line: Stability at room temperature. Type of data set: physicochemical. Particulars: maleic acid salt.
The mark [6] stands for this setting: histamine-induced ulcer, 300 mg/kg, 5 mg/kg i.v. histamine.

Where a name gives a salt, the structure may show the parent alone.

For the compound `NC[C@H]1CC[C@H](C(=O)Oc2ccc(CCC(=O)O)cc2)CC1` [Cetraxate, reference compound], the Inhibition rate in data set [1] (setting [6]) is reported as -7.0%; in the data set on Shay ulcer of rats (Shay ulcer, 300 mg/kg), 44.2%.

As usually defined, the LD50 is the dose expected to kill half of the subjects tested. A higher LD50 goes with a less toxic substance. `CN1CCC2=C(C1)c1ccccc1Cc1ccccc12` [MO-8282, 2-N-methyl-1,2,3,4-tetrahydro-9H-dibenzo[a,e]-pyridino[3,4-c]-cycloheptatriene]: the “inhibitory action on histamine-induced ulcers (in words)” value in data set [1] is given as “significant inhibitory action on histamine-induced ulcers in guinea-pigs”. Further, the Inhibition rate in data set [1] (histamine-induced ulcer, 3 mg/kg orally 10 min before 5 mg/kg i.v. histamine) worked out at 54.7%; in [1] (histamine-induced ulcer, 10 mg/kg orally 10 min before 5 mg/kg i.v. histamine), 98.6%; in the data set with Shay ulcer of rats (Shay ulcer, 3 mg/kg s.c.), 34.9%; in the data set with Shay ulcer of rats (Shay ulcer, 10 mg/kg s.c.), 44.2%; in data set [4] (acetic acid-induced ulcer, 3 mg/kg orally three times a day for 10 days), 23.2%; in data set [4] (acetic acid-induced ulcer, 10 mg/kg orally three times a day for 10 days), 51.2%. Further, the “efficacy compared with reference drugs (in words)” value in data set [1] (histamine-induced ulcer, versus the reference drugs) was “superior to that of the reference drugs”; in the data set on Shay ulcer of rats (Shay ulcer, versus sulpiride and cetraxate) it was “superior to the two reference drugs, sulpiride and cetraxate”. Also, the “toxic dose compared with therapeutic dose (in words)” value in the data set with ICR mice is given as “considerably higher than its therapeutic dose”. The LD50 at 168 h in the data set “in vivo” (female) worked out at 454 mg/kg; in “in vivo” (male) it was 423 mg/kg; in data set [2], 630 mg/kg. Moreover, the “inhibitory action on Shay ulcer (in words)” value in the data set on Shay ulcer of rats is recorded as “significant inhibitory action on Shay ulcer in rats”. For the same compound, the “anti-depressive activity (in words)” value in data set [3] is recorded as “has anti-depressive activity”. Also, the “solubility (insoluble in)” value in “Solubility” (ethanol, free base) is on record as “insoluble in ethanol”. In addition, the “solubility (soluble in)” value in the data set “Solubility” (solvents in which soluble, free base) was “soluble in ether, ethyl acetate, n-hexane and chloroform”. Further, in data set [4], the “inhibitory action on acetic acid-induced ulcer (in words)” value is “significant inhibitory action on acetic acid-induced ulcer in rats”. The “promotion of healing (in words)” value in data set [4] (acetic acid-induced ulcer, microscopic observation) is listed as “promotion of healing by the compound was also evident under microscopic observation”. In data set [4] (acetic acid-induced ulcer, versus sulpiride), the “efficacy compared with reference drug (in words)” value is “superior to that of the reference drug with a lower dose”.

`CN1CCC2=C(C1)c1ccccc1Cc1ccccc12` [Maleic acid salt of MO-8282]: the stability result in data set [5] was “stable at room temperature”. Also, the “solubility (soluble in)” value in the data set “Solubility” (water or ethanol, maleic acid salt) is “soluble in water or ethanol”.

Consider `CCN1CCCC1CNC(=O)c1cc(S(N)(=O)=O)ccc1OC` (stereo not drawn) [Sulpiride, reference compound], for which the Inhibition rate was found to be 5.6% in data set [1] (setting [6]); 16.3% with Shay ulcer of rats (Shay ulcer, 100 mg/kg); 43.9% in [4] (acetic acid-induced ulcer, 100 mg/kg).
